These results are taken from BindingDB's records for doi:10.1021/jm00046a026 (Virginia Commonwealth University, 1994).

Each structure is given as a SMILES string.

Experiment [1] in a line: Inhibition against mu receptor from displacement studies using 0.5 nM [3H]-DAMGO in rhesus monkey cortex membrane.
Experiment [2] is described as follows: Inhibition against delta receptor from displacement studies using 1.5 nM [3H]DPDPE in rhesus monkey cortex membrane.
Experiment [3] in a line: Inhibition against kappa receptor from displacement studies using 1.5 nM [3H]U-69593 in rhesus monkey cortex membrane.
Experiment [4] is described as follows: Inhibition against sigma receptor using displacement of 3 nM [3H]pentazocine in homogenate of guinea pig brain cerebellum.

For orientation: Ki means the dissociation constant of the complex between target and ligand, obtained from inhibition or displacement. For `CCCCCCCCCN1CC[C@]2(C)c3cc(O)ccc3CC1[C@@H]2C` [(6S,11R)-6,11-Dimethyl-3-nonyl-1,2,3,4,5,6-hexahydro-2,6-methano-benzo[d]azocin-8-ol], the Ki in experiment [1] was determined as 183 nM; in experiment [2] it was 464 nM; in experiment [3], 709 nM; in experiment [4] it was 32 nM.
In the case of `CCN1CC[C@@]2(C)c3cc(O)ccc3CC1[C@H]2C` [(6R,11S)-3-Ethyl-6,11-dimethyl-1,2,3,4,5,6-hexahydro-2,6-methano-benzo[d]azocin-8-ol], the figures for the Ki in experiment [2], in experiment [3] and in experiment [4] were 7000 nM, 3780 nM and 1090 nM, respectively.
For the molecule `C[C@@H]1C2Cc3ccc(O)cc3[C@]1(C)CCN2C` [(6R,11S)-3,6,11-Trimethyl-1,2,3,4,5,6-hexahydro-2,6-methano-benzo[d]azocin-8-ol], the Ki came to 1380 nM in experiment [1], 7000 nM in experiment [2], 3780 nM in experiment [3] and 1330 nM in experiment [4].
The matching figures for `CCCCCCCCCCN1CC[C@]2(C)c3cc(O)ccc3CC1[C@@H]2C` [(6S,11R)-3-Decyl-6,11-dimethyl-1,2,3,4,5,6-hexahydro-2,6-methano-benzo[d]azocin-8-ol]: 997 nM, 2580 nM, 2260 nM and 38 nM.
On the same counts, the results for `CCCCCCCCCN1CC[C@]2(C)c3cc(O)ccc3CC1[C@H]2C` [(6S,11S)-6,11-Dimethyl-3-nonyl-1,2,3,4,5,6-hexahydro-2,6-methano-benzo[d]azocin-8-ol] are 126 nM, 2930 nM, 2260 nM and 12 nM.
On to `CCCCN1CC[C@@]2(C)c3cc(O)ccc3CC1[C@H]2C` [(6R,11S)-3-Butyl-6,11-dimethyl-1,2,3,4,5,6-hexahydro-2,6-methano-benzo[d]azocin-8-ol], for which the Ki worked out at 1240 nM in experiment [1], 7000 nM in experiment [2], 783 nM in experiment [3] and 6 nM in experiment [4].
The matching figures for `CCCCCCN1CC[C@]2(C)c3cc(O)ccc3CC1[C@@H]2C` [(6S,11R)-3-Hexyl-6,11-dimethyl-1,2,3,4,5,6-hexahydro-2,6-methano-benzo[d]azocin-8-ol]: 39 nM, 67 nM, 43 nM and 40 nM.
As for `CCCCCCCCN1CC[C@]2(C)c3cc(O)ccc3CC1[C@@H]2C` [(6S,11R)-6,11-Dimethyl-3-octyl-1,2,3,4,5,6-hexahydro-2,6-methano-benzo[d]azocin-8-ol], the Ki in experiment [1] is 59 nM; in experiment [2], 114 nM; in experiment [3], 77 nM; in experiment [4], 35 nM.
On the same counts, the results for `CCN1CC[C@]2(C)c3cc(O)ccc3CC1[C@@H]2C` [(6S,11R)-3-Ethyl-6,11-dimethyl-1,2,3,4,5,6-hexahydro-2,6-methano-benzo[d]azocin-8-ol] are 16 nM, 158 nM, 16 nM and 16600 nM.
In the case of `CCCCCN1CC[C@@]2(C)c3cc(O)ccc3CC1[C@H]2C` [(6R,11S)-6,11-Dimethyl-3-pentyl-1,2,3,4,5,6-hexahydro-2,6-methano-benzo[d]azocin-8-ol], the Ki stood at 776 nM in experiment [1], 7000 nM in experiment [2] and 738 nM in experiment [3].
On the same counts, the results for `CCCCCN1CC[C@]2(C)c3cc(O)ccc3CC1[C@@H]2C` [(6S,11R)-6,11-Dimethyl-3-pentyl-1,2,3,4,5,6-hexahydro-2,6-methano-benzo[d]azocin-8-ol] are 15 nM, 98 nM and 23 nM.
For the molecule `CCCN1CC[C@]2(C)c3cc(O)ccc3CC1[C@@H]2C` [(6S,11R)-6,11-Dimethyl-3-propyl-1,2,3,4,5,6-hexahydro-2,6-methano-benzo[d]azocin-8-ol], the Ki in experiment [1] turned out to be 1.5 nM; in experiment [2] it was 37 nM; in experiment [3], 2 nM; in experiment [4], 739 nM.
Take `CCCCCCN1CC[C@@]2(C)c3cc(O)ccc3CC1[C@H]2C` [(6R,11S)-3-Hexyl-6,11-dimethyl-1,2,3,4,5,6-hexahydro-2,6-methano-benzo[d]azocin-8-ol]: the Ki in experiment [1] was 318 nM; in experiment [3] it was 2260 nM; in experiment [4], 2.3 nM.
In the case of `CCCN1CC[C@@]2(C)c3cc(O)ccc3CC1[C@H]2C` [(6R,11S)-6,11-Dimethyl-3-propyl-1,2,3,4,5,6-hexahydro-2,6-methano-benzo[d]azocin-8-ol], the Ki in experiment [1] stood at 943 nM; in experiment [2], 7000 nM; in experiment [3], 452 nM; in experiment [4] it was 43 nM.
As to `CCCCCCCCN1CC[C@]2(C)c3cc(O)ccc3CC1[C@H]2C` [(6S,11S)-6,11-Dimethyl-3-octyl-1,2,3,4,5,6-hexahydro-2,6-methano-benzo[d]azocin-8-ol], the Ki in experiment [1] is 160 nM; in experiment [2] it was 1590 nM; in experiment [3] it was 2260 nM; in experiment [4], 2.8 nM.
On the same counts, the results for `CCCCCCCN1CC[C@]2(C)c3cc(O)ccc3CC1[C@H]2C` [(6S,11S)-3-Heptyl-6,11-dimethyl-1,2,3,4,5,6-hexahydro-2,6-methano-benzo[d]azocin-8-ol] are 259 nM, 7000 nM, 723 nM and 1.9 nM.
The matching figures for `C[C@H]1C2Cc3ccc(O)cc3[C@@]1(C)CCN2C` [(6S,11R)-3,6,11-Trimethyl-1,2,3,4,5,6-hexahydro-2,6-methano-benzo[d]azocin-8-ol]: 4.2 nM, 152 nM, 17 nM and 18100 nM.
Consider `C[C@H]1C2Cc3ccc(O)cc3[C@@]1(C)CCN2` [(6S,11R)-6,11-Dimethyl-1,2,3,4,5,6-hexahydro-2,6-methano-benzo[d]azocin-8-ol], for which the Ki in experiment [2] was found to be 449 nM; in experiment [3], 113 nM; in experiment [4], 6750 nM.
In the case of `CCCCCCCN1CC[C@]2(C)c3cc(O)ccc3CC1[C@@H]2C` [(6S,11R)-3-Heptyl-6,11-dimethyl-1,2,3,4,5,6-hexahydro-2,6-methano-benzo[d]azocin-8-ol], the Ki in experiment [1] is 27 nM; in experiment [2] it was 57 nM; in experiment [3], 32 nM; in experiment [4], 49 nM.
As to `CCCCCCCCCCN1CC[C@]2(C)c3cc(O)ccc3CC1[C@H]2C` [(6S,11S)-3-Decyl-6,11-dimethyl-1,2,3,4,5,6-hexahydro-2,6-methano-benzo[d]azocin-8-ol], the figures for the Ki in experiment [1], in experiment [3] and in experiment [4] were 756 nM, 2260 nM and 69 nM, respectively.
With `C[C@@H]1C2Cc3ccc(O)cc3[C@]1(C)CCN2` [(6R,11S)-6,11-Dimethyl-1,2,3,4,5,6-hexahydro-2,6-methano-benzo[d]azocin-8-ol], the Ki in experiment [1] was 1720 nM; in experiment [2], 7000 nM; in experiment [3] it was 3780 nM; in experiment [4], 2730 nM.
`CCCCN1CC[C@]2(C)c3cc(O)ccc3CC1[C@@H]2C` [(6S,11R)-3-Butyl-6,11-dimethyl-1,2,3,4,5,6-hexahydro-2,6-methano-benzo[d]azocin-8-ol]: the Ki in experiment [1] is 3.4 nM; in experiment [2], 78 nM; in experiment [3], 4.9 nM; in experiment [4], 104 nM.
